Experimental data as given in PubChem BioAssay AID623904 (Broad Institute, 2012).
Where “and” joins values, the source holds several entries; their conditions need not be identical. Equal values may be shown once. Calls of active or inactive are those of the source.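 How the source made its calls: active means growth inhibition with an AC50 at or below twice the top valid tested dose; inconclusive means flat curve at 30 to 70% inhibition, or poor fit; inactive means the rest, including growth increase.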

Experiments:
[1] = test system: Candida glabrata growth, glucose medium, OD600, 48 h; test: C. glabrata growth inhibition on glucose, dose response, glucose medium, OD600, powder samples, set 2 (AID 623904)
[2] = as above; conditions: Candida glabrata growth, glucose medium, OD600, 48 h; at 6 µM (top of the series)

Row | Structure (SMILES) | AC50 [1] | activity change, negative = inhibition [2]
1 | CCOC(=O)N1C(=O)C2(CCCCC2)N(c2ccc(C)cc2)C1=S | 1.85 µM and 2.09 µM | 
2 | CCOC(=O)N1C(=O)C2(CCCC2)N(c2ccc(C)cc2)C1=S | > 12 µM (inactive) | 
3 | O=C1NC(=S)N(c2ccccc2)C12CCCCC2 |  | 5.48% (inactive)
4 | CCOC(=O)N1C(=O)C2(CCCCC2)N(c2ccc(C#N)cc2)C1=S | 3.29 µM | 
5 | CCOC(=O)N1C(=O)C2(CCCCC2)N(c2cccc(C)c2)C1=S | 2.34 µM | 
6 | CCOC(=O)N1C(=O)C2(CCCCC2)N(c2ccccc2)C1=S | 2.04 µM | 
7 | Cc1ccc(N2C(=O)C3(CCCCC3)NC2=S)cc1 | > 12 µM (inactive) | 
8 | O=C1NC(=S)N(c2ccc(F)cc2)C12CCCCC2 |  | 11% (inactive)
9 | CCCCN1C(=O)N(c2ccc(C)cc2)C2(CCCCC2)C1=O |  | -27.1% (inactive)
10 | CCCCN1C(=O)C2(CCCCC2)N(c2ccc(C)cc2)C1=S |  | 5.19% (inactive)
11 | CCOC(=O)N1C(=S)NC(=O)C12CCCCC2 | > 12 µM (inactive) | 
12 | Cc1ccc(N2C(=S)N(S(C)(=O)=O)C(=O)C23CCCCC3)cc1 | > 12 µM (inactive) | 
13 | CCOC(=O)N1C(=S)N(c2ccc(C)cc2)C(=O)C12CCCCC2 | > 12 µM (inactive) | 
14 | CC1/C=C/C=C\C=C\C=C\C=C\C=C\C=C\C(O[C@H]2OC(C)C(O)C(N)C2O)CC2OC(O)(CC(O)CC(O)C(O)CCC(O)CC(O)CC(=O)OC(C)C(C)C1O)CC(O)C2C(=O)O (stereo partly drawn) | 0.206 µM | 
15 | CCOC(=O)N1C(=O)C2(CCCCC2)N(c2ccc(-c3ccccc3)cc2)C1=S |  | -30.1% (inactive)
16 | CC(C)N1C(=S)NC(=O)C12CCCCC2 |  | -10.3% (inactive)
17 | CCOC(=O)N1C(=O)C2(CCCCC2)N(c2ccc(F)cc2)C1=S | 2.34 µM | 
18 | CCOC(=O)N1C(=O)C2(CCC2)N(c2ccc(C)cc2)C1=S | > 12 µM (inactive) | 
19 | Cc1ccc(N2C(=S)N(C(=O)OCc3ccccc3)C(=O)C23CCCCC3)cc1 |  | 5.73% (inactive)
20 | CCOC(=O)N1C(=S)N(c2ccc(C)cc2)C2(CCCCC2)C1=NCc1ccccc1 | > 12 µM (inactive) | 
21 | Cc1ccc(N2C(=O)NC(=O)C23CCCCC3)cc1 | > 12 µM (inactive) | 
22 | Cc1ccc(N2C(=O)C(=O)NC2=S)cc1 | > 12 µM (inactive) | 

Row | Structure (SMILES) | AC50 [1] | activity change, negative = inhibition [2]
23 | CCOC(=O)N1C(=O)C2(CCCCC2)N(c2ccc(C(C)(C)C)cc2)C1=S |  | -18.2% (inactive)
24 | CCOC(=O)N1C(=O)N(c2ccc(C)cc2)C2(CCCCC2)C1=O |  | -17.3% (inactive)
25 | Cc1ccc(N2C(=S)NC(=O)C23CCC3)cc1 |  | 9.11% (inactive)
26 | CCOC(=O)N1C(=O)C(C)(C)N(c2ccc(C)cc2)C1=S |  | -7.97% (inactive)
27 | Cc1ccc(N2CC(=O)NC2=S)cc1 |  | 2.6% (inactive)
28 | CCOC(=O)N1C(=O)C2(CCCCC2)N(C(C)C)C1=S |  | 10.8% (inactive)
29 | Cc1ccc(N2C(=S)NC(=O)C23CCOCC3)cc1 |  | -7.64% (inactive)
30 | Cc1ccc(N2C(=O)N(C)C(=O)C23CCCCC3)cc1 | > 12 µM (inactive) | 
31 | CCOC(=O)N1C(=O)C2(CCCCC2)NC1=S | > 12 µM (inactive) | 
32 | Cc1ccc(N2C(=S)NC(=O)C23CCCC3)cc1 |  | -25.3% (inactive)
33 | Cc1ccc(N2C(=S)NC(=O)C23CCCCC3)cc1 |  | -5.97% (inactive)
34 | CCCCN1C(=O)N(c2ccc(C)cc2)C2(CCCCC2)C1=S |  | -6.75% (inactive)
35 | CCCC(=O)N1C(=O)C2(CCCCC2)N(c2ccc(C)cc2)C1=S | 1.48 µM | 
36 | O=C1NC(=S)NC12CCCCC2 |  | -24.5% (inactive)
37 | COC(=O)N1C(=O)C2(CCCCC2)N(c2ccc(C)cc2)C1=S | 5.93 µM | 
38 | Cc1ccc(N2C(=S)N(C(=O)Oc3ccccc3)C(=O)C23CCCCC3)cc1 |  | 2.19% (inactive)
39 | Cc1ccc(N2C(=S)NC(=O)C2(C)C)cc1 |  | 46.6% (inactive)
40 | Cc1ccc(N2CC(=O)NC2=O)cc1 |  | 9.85% (inactive)
41 | Cc1ccc(N2C(=S)N(C)C(=O)C23CCCCC3)cc1 |  | 2.67% (inactive) and 7.65% (inactive)
42 | CCOC(=O)N1C(=O)C2(CCOCC2)N(c2ccc(C)cc2)C1=S | > 12 µM (inactive) | 
43 | CCOC(=O)N1C(=O)C2(CCCCC2)N(c2ccc(C(F)(F)F)cc2)C1=S | 4.15 µM | 
